Measured values from ChEMBL document CHEMBL4177703, “The discovery and optimization of naphthalene-linked P2-P4 Macrocycles as inhibitors of HCV NS3 protease” (Bioorg Med Chem Lett, 2018).
Blank lines part the entries; values can stand above or below the molecule they belong to.

Experiments:
[1] = Clearance in rat at 5 mg/kg, iv or 15 mg/kg, po; format: ADME, organism-based; conditions: in vivo
[2] = Oral bioavailability in rat at 15 mg/kg; format: ADME, organism-based; conditions: in vivo
[3] = Drug concentration in Sprague-Dawley rat liver at 15 mg/kg, po after 6 hrs; format: ADME, organism-based; conditions: read-out: Drug uptake
[4] = AUC in Sprague-Dawley rat at 5 mg/kg, iv after 6 hrs; format: ADME, organism-based; parameters: time < 6 hr, dose 5 mg/kg, route intravenous; conditions: in vivo
[5] = Drug concentration in Sprague-Dawley rat liver at 5 mg/kg, iv after 6 hrs; format: ADME, organism-based; conditions: read-out: Drug uptake
[6] = AUC in Sprague-Dawley rat at 15 mg/kg, po after 6 hrs; format: ADME, organism-based; parameters: dose 15 mg/kg, time < 6 hr, route oral; conditions: in vivo
[7] = Clearance in Sprague-Dawley rat at 5 mg/kg, iv after 6 hrs; format: ADME, organism-based; conditions: in vivo
[8] = Half life in human liver microsomes in presence of NADPH; format: ADME, microsome
[9] = Half life in Sprague-Dawley rat at 15 mg/kg, po after 24 hrs; format: ADME, organism-based; conditions: in vivo
[10] = AUC in Sprague-Dawley rat at 5 mg/kg, iv after 24 hrs; format: ADME, organism-based; parameters: dose 5 mg/kg, time < 24 hr, route intravenous; conditions: in vivo
[11] = Oral bioavailability in Sprague-Dawley rat at 15 mg/kg after 24 hrs; format: ADME, organism-based; conditions: in vivo
[12] = Half life in Sprague-Dawley rat at 5 mg/kg, iv after 24 hrs; format: ADME, organism-based; conditions: in vivo
[13] = Clearance in Sprague-Dawley rat at 5 mg/kg, iv after 24 hrs; format: ADME, organism-based; conditions: in vivo
[14] = AUC in Sprague-Dawley rat at 15 mg/kg, po after 24 hrs; format: ADME, organism-based; parameters: time < 24 hr, dose 15 mg/kg, route oral; conditions: in vivo
[15] = Cardiotoxicity in Langendorff perfused rabbit heart assessed as change in coronary flow at 10 uM measured over 10 mins by electrocardiography (reference value: 0%); format: toxicity, tissue-based, Oryctolagus cuniculus
[16] = Drug concentration in Sprague-Dawley rat liver at 5 mg/kg, iv after 24 hrs; format: ADME, organism-based; conditions: read-out: Drug uptake
[17] = Cardiotoxicity in Langendorff perfused rabbit heart assessed as change in QRS interval at 10 uM measured over 20 mins by electrocardiography (reference value: 0%); format: toxicity, tissue-based, Oryctolagus cuniculus
[18] = Cardiotoxicity in Langendorff perfused rabbit heart assessed as change in PR interval at 10 uM measured over 20 mins by electrocardiography (reference value: 0%); format: toxicity, tissue-based, Oryctolagus cuniculus
[19] = Cardiotoxicity in Langendorff perfused rabbit heart assessed as change in sinus node recovery time at 10 uM measured over 20 mins by electrocardiography (reference value: 0%); format: toxicity, tissue-based, Oryctolagus cuniculus
[20] = Cardiotoxicity in Langendorff perfused rabbit heart assessed as change in heart rate at 10 uM measured over 20 mins by electrocardiography (reference value: 0%); format: toxicity, tissue-based, Oryctolagus cuniculus
[21] = Cardiotoxicity in Langendorff perfused rabbit heart assessed as change in QT interval at 10 uM measured over 10 mins by electrocardiography (reference value: 0%); format: toxicity, tissue-based, Oryctolagus cuniculus
[22] = Cardiotoxicity in Langendorff perfused rabbit heart assessed as change in QT interval at 10 uM measured over 20 mins by electrocardiography (reference value: 0%); format: toxicity, tissue-based, Oryctolagus cuniculus
[23] = Cardiotoxicity in Langendorff perfused rabbit heart assessed as change in heart rate at 10 uM measured over 10 mins by electrocardiography (reference value: 0%); format: toxicity, tissue-based, Oryctolagus cuniculus
[24] = Cardiotoxicity in Langendorff perfused rabbit heart assessed as change in heart rate at 10 uM measured over 30 mins by electrocardiography (reference value: 0%); format: toxicity, tissue-based, Oryctolagus cuniculus; conditions: 0.5 h
[25] = Drug concentration in Sprague-Dawley rat liver at 15 mg/kg, po after 24 hrs; format: ADME, organism-based; conditions: read-out: Drug uptake
[26] = Cardiotoxicity in Langendorff perfused rabbit heart assessed as change in QRS interval at 10 uM measured over 30 mins by electrocardiography (reference value: 0%); format: toxicity, tissue-based, Oryctolagus cuniculus; conditions: 0.5 h
[27] = Cardiotoxicity in Langendorff perfused rabbit heart assessed as change in QRS interval at 10 uM measured over 10 mins by electrocardiography (reference value: 0%); format: toxicity, tissue-based, Oryctolagus cuniculus
[28] = Cardiotoxicity in Langendorff perfused rabbit heart assessed as change in PR interval at 10 uM measured over 30 mins by electrocardiography (reference value: 0%); format: toxicity, tissue-based, Oryctolagus cuniculus; conditions: 0.5 h
[29] = Cardiotoxicity in Langendorff perfused rabbit heart assessed as change in sinus node recovery time at 10 uM measured over 10 mins by electrocardiography (reference value: 0%); format: toxicity, tissue-based, Oryctolagus cuniculus
[30] = Cardiotoxicity in Langendorff perfused rabbit heart assessed as change in PR interval at 10 uM measured over 10 mins by electrocardiography (reference value: 0%); format: toxicity, tissue-based, Oryctolagus cuniculus
[31] = Cardiotoxicity in Langendorff perfused rabbit heart assessed as change in coronary flow at 10 uM measured over 30 mins by electrocardiography (reference value: 0%); format: toxicity, tissue-based, Oryctolagus cuniculus; conditions: 0.5 h
[32] = Cardiotoxicity in Langendorff perfused rabbit heart assessed as change in coronary flow at 10 uM measured over 20 mins by electrocardiography (reference value: 0%); format: toxicity, tissue-based, Oryctolagus cuniculus
[33] = Cardiotoxicity in Langendorff perfused rabbit heart assessed as change in QT interval at 10 uM measured over 30 mins by electrocardiography (reference value: 0%); format: toxicity, tissue-based, Oryctolagus cuniculus; conditions: 0.5 h
[34] = Cardiotoxicity in Langendorff perfused rabbit heart assessed as change in sinus node recovery time at 10 uM measured over 30 mins by electrocardiography (reference value: 0%); format: toxicity, tissue-based, Oryctolagus cuniculus; conditions: 0.5 h

Structure (SMILES): COc1cc2ccc3cc2cc1OCCCN(C1CC1)CCOC(=O)N[C@@H](C(C)(C)C)C(=O)N1C[C@@]3(OC)C[C@H]1C(=O)N[C@]1(C(=O)NS(=O)(=O)C2CC2)C[C@H]1C1CC1
half-life [9]: 480 min
AUC at 24 h [10]: 33 µM·h
bioavailability [11]: 18%
half-life [12]: 1200 min
clearance [13]: 3.5 mL/min/kg
half-life [8]: 43 min
AUC at 24 h [14]: 18 µM·h

Structure (SMILES): COc1cc2ccc3cc2cc1CCCC(C)(C)CCOC(=O)N[C@@H](C(C)(C)C)C(=O)N1C[C@@]3(OC)C[C@H]1C(=O)N[C@]1(C(=O)NS(=O)(=O)C2CC2)C[C@H]1C1CC1
Activity [15]: 43%
concentration at 24 h [16]: 100 µM
Activity [17]: 31%
Activity [18]: 0%
Activity [19]: 16%
Activity [20]: -5%
Activity [21]: -4%
Activity [22]: 0%
Activity [23]: 5%
Activity [24]: -16%
half-life [9]: 234 min
AUC at 24 h [10]: 29 µM·h
bioavailability [11]: 100%
concentration at 24 h [25]: 85 µM
Activity [26]: 31%
Activity [27]: 17%
Activity [28]: 0%
Activity [29]: 3%
Activity [30]: 4%
half-life [12]: 576 min
Activity [31]: -10%
Activity [32]: 14%
clearance [13]: 3.5 mL/min/kg
half-life [8]: 76 min
Activity [33]: 0%
AUC at 24 h [14]: 87 µM·h

Structure (SMILES): COc1cc2ccc3cc2cc1CCCCCCOC(=O)N[C@@H](C(C)(C)C)C(=O)N1C[C@@]3(OC)C[C@H]1C(=O)N[C@]1(C(=O)NS(=O)(=O)C2CC2)C[C@H]1C1CC1
Activity [15]: 18%
Activity [17]: 32%
Activity [18]: 9%
Activity [19]: 6%
Activity [20]: -5%
Activity [21]: 7%
Activity [22]: 10%
Activity [23]: -2%
Activity [24]: -13%
half-life [9]: 318 min
AUC at 24 h [10]: 57 µM·h
bioavailability [11]: 34%
Activity [26]: 43%
Activity [27]: 10%
Activity [34]: 19%
Activity [28]: 18%
Activity [29]: 4%
Activity [30]: 2%
half-life [12]: 570 min
Activity [31]: 19%
Activity [32]: 21%
clearance [13]: 2 mL/min/kg
half-life [8]: 99 min
Activity [33]: 7%
AUC at 24 h [14]: 59 µM·h

Structure (SMILES): COC(=O)N1CCCOc2cc3cc(ccc3cc2OC)[C@]2(OC)C[C@@H](C(=O)N[C@]3(C(=O)NS(=O)(=O)C4CC4)C[C@H]3C3CC3)N(C2)C(=O)[C@H](C(C)(C)C)NC(=O)OCC1
half-life [8]: > 120 min

Structure (SMILES): COc1cc2ccc3cc2cc1CCCCC(C)(C)COC(=O)N[C@@H](C(C)(C)C)C(=O)N1C[C@@]3(OC)C[C@H]1C(=O)N[C@]1(C(=O)NS(=O)(=O)C2CC2)C[C@H]1C1CC1
half-life [8]: 83 min

Structure (SMILES): CO[C@@]12C[C@@H](C(=O)N[C@]3(C(=O)NS(=O)(=O)C4CC4)C[C@H]3C3CC3)N(C1)C(=O)[C@H](C(C)(C)C)NC(=O)OCCCCCOc1ccc3ccc2cc3c1
concentration at 24 h [16]: 45 µM
half-life [9]: 252 min
AUC at 24 h [10]: 7.2 µM·h
bioavailability [11]: 16%
concentration at 24 h [25]: 31 µM
half-life [12]: 276 min
clearance [13]: 19 mL/min/kg
half-life [8]: 39 min
AUC at 24 h [14]: 3.6 µM·h

Further lines, results first:

clearance [1]: 38 mL/min/kg
bioavailability [2]: 12%
Structure (SMILES): C=C[C@@H]1C[C@]1(NC(=O)[C@@H]1C[C@@H](Oc2ncc(OC)c3ccc(Cl)cc23)CN1C(=O)[C@@H](NC(=O)OC(C)(C)C)C(C)(C)C)C(=O)NS(=O)(=O)C1CC1

concentration at 6 h [3]: 108 µM
AUC at 6 h [4]: 90 µM·h
concentration at 6 h [5]: 95 µM
AUC at 6 h [6]: 27 µM·h
clearance [7]: 1.2 mL/min/kg
half-life [8]: 25 min
Structure (SMILES): C=C[C@@H]1C[C@]1(NC(=O)[C@@H]1C[C@]2(OC)CN1C(=O)[C@H](C(C)(C)C)NC(=O)OCCCCCCc1cc3cc2ccc3cc1OC)C(=O)NS(=O)(=O)C1CC1

half-life [8]: 58 min
Structure (SMILES): C=C[C@@H]1C[C@]1(NC(=O)[C@@H]1C[C@]2(OC)CN1C(=O)[C@H](C(C)(C)C)NC(=O)OCC(C)(C)CCCCc1cc3cc2ccc3cc1OC)C(=O)NS(=O)(=O)C1CC1

half-life [8]: 22 min
Structure (SMILES): C=C[C@@H]1C[C@]1(NC(=O)[C@@H]1C[C@]2(OC)CN1C(=O)[C@H](C(C)(C)C)NC(=O)OCCCCCOc1ccc3ccc2cc3c1)C(=O)NS(=O)(=O)C1CC1

half-life [8]: 21 min
Structure (SMILES): C=C[C@@H]1C[C@]1(NC(=O)[C@@H]1C[C@@](OC)(c2ccc3cc(OC)ccc3c2)CN1C(=O)[C@@H](NC(=O)OC(C)(C)C)C(C)(C)C)C(=O)NS(=O)(=O)C1CC1

half-life [8]: 36 min
Structure (SMILES): C=Cc1cc2cc([C@]3(OC)C[C@@H](C(=O)N[C@]4(C(=O)NS(=O)(=O)C5CC5)C[C@H]4C=C)N(C(=O)[C@@H](NC(=O)OC(C)(C)C)C(C)(C)C)C3)ccc2cc1OC

half-life [8]: 33 min
Structure (SMILES): C=C[C@@H]1C[C@]1(NC(=O)[C@@H]1C[C@]2(OC)CN1C(=O)[C@H](C(C)(C)C)NC(=O)OCCCCCCCCc1cc3cc2ccc3cc1OC)C(=O)NS(=O)(=O)C1CC1
